Measurements: US20250154138A1, “Small Molecule IL-17A Modulators” (BeiGene, Ltd., priority 2022, published 2025)

Biological target: human IL-17A / human IL-17RA (Homo sapiens (Human), UniProt Q16552)
Assay: Human IL-17A biochemical assay (HTRF, blocking of IL-17A binding to IL-17RA)
Settings: 0.4 nM IL-17A, 0.3 nM IL-17RA, max compound concentration 10 uM
Experimental: Compounds disclosed herein were tested for blocking of human IL-17A (Cat: C774, novoprotein) protein with its receptor human IL-17RA (Cat: C153, novoprotein) in an assay based on Homogeneous Time Resolved Fluorescence. 0.4 nM recombinant human IL-17A protein was pre-incubated with a serial dilution of compounds disclosed herein (maximum concentration is 10 uM, 2.7-fold serially diluted, 10 points) at room temperature for 3 hours in an assay buffer containing 20 mM HEPES, pH 7.5, 50 mM NaCl, 0.1% BSA, 0.2 mM DTT, 0.005% Tween 20. Then 0.3 nM recombinant human IL-17RA was added to plate and further incubated at room temperature for 1 hour. After that Mab Anti-6His Tb cryptate Gold (Cat: 61HI2TLB, Cisbio Bioassays) and MAb Anti Human IgG-XL665 (Cat: 61HFCXLB, Cisbio Bioassays) were added to plate and further incubated at room temperature for 1 hour. The HTRF signals (ex337 nm, em620 nm/665 nm) were read on BMG PHERAstar FSX instrument. The inhibition percentage of human IL-17A interaction with its receptor human IL-17RA in presence of increasing concentrations of compounds was calculated based on the ratio of […]. The IC50 for each compound was derived from fitting the data to the four-parameter logistic equation by Dotmatics.

human IL-17A / human IL-17RA, sequence (Q16552 24-155): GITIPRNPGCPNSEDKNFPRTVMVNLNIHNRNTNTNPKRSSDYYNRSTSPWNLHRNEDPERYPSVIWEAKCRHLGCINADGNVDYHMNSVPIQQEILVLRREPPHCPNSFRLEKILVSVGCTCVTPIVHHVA

SMILES	IC50 [nM]
CNC(=O)C1Cc2ccc(NC(=O)[C@@H](NC(=O)c3ccnn3C)C3CCCCC3)cc2C1 (stereo partly drawn) [Example 4, N-((1S)-1-cyclohexyl-2-((2-(methylcarbamoyl)-2,3-dihydro-1H-inden-5-yl)amino)-2-oxoethyl)-1-methyl-1H-pyrazole-5-carboxamide]	> 10000
CNC(=O)C1(N2CC(C)NC2=O)COc2ccc(NC(=O)[C@@H](NC(=O)c3ccnn3C)C3CCCCC3)cc2OC1 (stereo partly drawn) [Example 6, N-((1S)-1-cyclohexyl-2-((3-(4-methyl-2-oxoimidazolidin-1-yl)-3-(methylcarbamoyl)-3,4-dihydro-2H-benzo[b][1,4]dioxepin-7-yl)amino)-2-oxoethyl)-1-methyl-1H-pyrazole-5-carboxamide]	17000
CNC(=O)C1(N2CC(C)NC2=O)CCc2ccc(NC(=O)[C@@H](NC(=O)c3ccnn3C)C3CCCCC3)cc2CC1 (stereo partly drawn) [Example 7, N-((1S)-1-cyclohexyl-2-((7-(4-methyl-2-oxoimidazolidin-1-yl)-7-(methylcarbamoyl)-6,7,8,9-tetrahydro-5H-benzo[7]annulen-2-yl)amino)-2-oxoethyl)-1-methyl-1H-pyrazole-5-carboxamide]	51000
CNC(=O)C1(N2CC(C)NC2=O)CCc2cc(NC(=O)[C@@H](NC(=O)c3ccnn3C)C3CCCCC3)ccc21 (stereo partly drawn) [Example 8, N-((1S)-1-cyclohexyl-2-((1-(4-methyl-2-oxoimidazolidin-1-yl)-1-(methylcarbamoyl)-2,3-dihydro-1H-inden-5-yl)amino)-2-oxoethyl)-1-methyl-1H-pyrazole-5-carboxamide]	> 10000
CNC(=O)C1(N2CC(C)NC2=O)CCc2ccc(NC(=O)[C@@H](NC(=O)c3ccnn3C)C3CCCCC3)cc2C1 (stereo partly drawn) [Example 10, N-((1S)-1-cyclohexyl-2-((7-(4-methyl-2-oxoimidazolidin-1-yl)-7-(methylcarbamoyl)-5,6,7,8-tetrahydronaphthalen-2-yl)amino)-2-oxoethyl)-1-methyl-1H-pyrazole-5-carboxamide]	19000
CNC(=O)C1(N2CC(C)NC2=O)Cc2ccc(NC(=O)[C@H](CC3CCCCC3)NC(=O)c3ccnn3C)cc2C1 (stereo partly drawn) [Example 16, N-((2S)-3-cyclohexyl-1-((2-(4-methyl-2-oxoimidazolidin-1-yl)-2-(methylcarbamoyl)-2,3-dihydro-1H-inden-5-yl)amino)-1-oxopropan-2-yl)-1-methyl-1H-pyrazole-5-carboxamide]	5000
CC1CN(CC2Cc3ccc(NC(=O)[C@@H](NC(=O)c4ccnn4C)C4CCCCC4)cc3O2)C(=O)N1 (stereo partly drawn) [Example 21, N-((1S)-1-cyclohexyl-2-((2-((4-methyl-2-oxoimidazolidin-1-yl)methyl)-2,3-dihydrobenzofuran-6-yl)amino)-2-oxoethyl)-1-methyl-1H-pyrazole-5-carboxamide]	2400
CNC(=O)C1(N2CC(CC(C)C)NC2=O)Cc2ccc(NC(=O)[C@@H](NC(=O)c3ccnn3C)C3CCCCC3)cc2C1 (stereo partly drawn) [Example 24, N-((1S)-1-cyclohexyl-2-((2-(4-isobutyl-2-oxoimidazolidin-1-yl)-2-(methylcarbamoyl)-2,3-dihydro-1H-inden-5-yl)amino)-2-oxoethyl)-1-methyl-1H-pyrazole-5-carboxamide]	2340
CNC(=O)C1(N2C[C@@H](C3CCCCC3)NC2=O)Cc2ccc(NC(=O)[C@@H](NC(=O)c3ccnn3C)C3CCCCC3)cc2C1 (stereo partly drawn) [Example 25, N-((1S)-1-cyclohexyl-2-((2-((R)-4-cyclohexyl-2-oxoimidazolidin-1-yl)-2-(methylcarbamoyl)-2,3-dihydro-1H-inden-5-yl)amino)-2-oxoethyl)-1-methyl-1H-pyrazole-5-carboxamide]	6300
CC[C@H]1CN(C2(C(=O)NC)Cc3cc4nc([C@@H](NC(=O)c5nonc5C)C5CCCCC5)[nH]c4cc3C2)C(=O)N1 [Example 33, N-((1S)-cyclohexyl(6-((S)-4-ethyl-2-oxoimidazolidin-1-yl)-6-(methylcarbamoyl)-1,5,6,7-tetrahydroindeno[5,6-d]imidazol-2-yl)methyl)-4-methyl-1,2,5-oxadiazole-3-carboxamide]	2040
CNC(=O)C1(N2CC(C3CCOC3)NC2=O)Cc2ccc(NC(=O)[C@@H](NC(=O)c3ccnn3C)C3CCCCC3)cc2C1 (stereo partly drawn) [Example 34, N-((1S)-1-cyclohexyl-2-((2-(methylcarbamoyl)-2-(2-oxo-4-(tetrahydrofuran-3-yl)imidazolidin-1-yl)-2,3-dihydro-1H-inden-5-yl)amino)-2-oxoethyl)-1-methyl-1H-pyrazole-5-carboxamide]	8400
CNC(=O)C1(N2CC(c3ccccc3)NC2=O)Cc2ccc(NC(=O)[C@@H](NC(=O)c3ccnn3C)C3CCCCC3)cc2C1 (stereo partly drawn) [Example 36, N-((1S)-1-cyclohexyl-2-((2-(methylcarbamoyl)-2-(2-oxo-4-phenylimidazolidin-1-yl)-2,3-dihydro-1H-inden-5-yl)amino)-2-oxoethyl)-1-methyl-1H-pyrazole-5-carboxamide]	2430
CNC(=O)C1(N2CC(C(C)(C)O)NC2=O)Cc2ccc(NC(=O)[C@@H](NC(=O)c3ccnn3C)C3CCCCC3)cc2C1 (stereo partly drawn) [Example 42, N-((1S)-1-cyclohexyl-2-((2-(4-(2-hydroxypropan-2-yl)-2-oxoimidazolidin-1-yl)-2-(methylcarbamoyl)-2,3-dihydro-1H-inden-5-yl)amino)-2-oxoethyl)-1-methyl-1H-pyrazole-5-carboxamide]	3170
CNC(=O)C1(N2C[C@@H](C(C)C)NC2=O)Cc2ccc(NC(=O)[C@@H](NC(=O)c3ccnn3C)C3CCC3)cc2C1 (stereo partly drawn) [Example 45, N-((1S)-1-cyclobutyl-2-((2-((R)-4-isopropyl-2-oxoimidazolidin-1-yl)-2-(methylcarbamoyl)-2,3-dihydro-1H-inden-5-yl)amino)-2-oxoethyl)-1-methyl-1H-pyrazole-5-carboxamide]	5130
CNC(=O)C1(N2C[C@@H](C(C)C)NC2=O)Cc2ccc(NC(=O)[C@@H](NC(=O)C3CC3)C3CCCCC3)cc2C1 (stereo partly drawn) [Example 49, 5-((S)-2-cyclohexyl-2-(cyclopropanecarboxamido)acetamido)-2-((R)-4-isopropyl-2-oxoimidazolidin-1-yl)-N-methyl-2,3-dihydro-1H-indene-2-carboxamide]	1810
CCOC(=O)N[C@H](C(=O)Nc1ccc2c(c1)CC(C(=O)NC)(N1C[C@@H](C(C)C)NC1=O)C2)C1CCCCC1 (stereo partly drawn) [Example 50, ethyl ((1S)-1-cyclohexyl-2-((2-((R)-4-isopropyl-2-oxoimidazolidin-1-yl)-2-(methylcarbamoyl)-2,3-dihydro-1H-inden-5-yl)amino)-2-oxoethyl)carbamate]	1580
CNC(=O)C1(N2C[C@@H](C(C)C)NC2=O)Cc2ccc(NC(=O)[C@@H](NC(=O)CCc3ccccc3)C3CCCCC3)cc2C1 (stereo partly drawn) [Example 52, 5-((S)-2-cyclohexyl-2-(3-phenylpropanamido)acetamido)-2-((R)-4-isopropyl-2-oxoimidazolidin-1-yl)-N-methyl-2,3-dihydro-1H-indene-2-carboxamide]	1310
CNC(=O)C1(N2C[C@@H](C(C)C)NC2=O)Cc2ccc(NC(=O)[C@@H](NC(=O)c3ccnn3C)c3ccccc3)cc2C1 (stereo partly drawn) [Example 60, N-((1S)-2-((2-((R)-4-isopropyl-2-oxoimidazolidin-1-yl)-2-(methylcarbamoyl)-2,3-dihydro-1H-inden-5-yl)amino)-2-oxo-1-phenylethyl)-1-methyl-1H-pyrazole-5-carboxamide]	2010
CNC(=O)C1(N2C[C@@H](C(C)C)NC2=O)Cc2ccc(NC(=O)[C@@H](NC(=O)c3ncnn3C)C3CCCCC3)cc2C1 (stereo partly drawn) [Example 64, N-((1S)-1-cyclohexyl-2-((2-((R)-4-isopropyl-2-oxoimidazolidin-1-yl)-2-(methylcarbamoyl)-2,3-dihydro-1H-inden-5-yl)amino)-2-oxoethyl)-1-methyl-1H-1,2,4-triazole-5-carboxamide]	1820
CNC(=O)C1(N2C[C@@H](C(C)C)NC2=O)Cc2ccc(NC(=O)C(NC(=O)c3ccnn3C)C3CCC(OC)CC3)cc2C1 (stereo partly drawn) [Example 72, N-(2-((2-((R)-4-isopropyl-2-oxoimidazolidin-1-yl)-2-(methylcarbamoyl)-2,3-dihydro-1H-inden-5-yl)amino)-1-(4-methoxycyclohexyl)-2-oxoethyl)-1-methyl-1H-pyrazole-5-carboxamide]	3630
CNC(=O)C1(N2CC(CC(F)(F)F)NC2=O)Cc2ccc(NC(=O)[C@@H](NC(=O)c3ccnn3C)C3CCCCC3)cc2C1 (stereo partly drawn) [Example 73, N-((1S)-1-cyclohexyl-2-((2-(methylcarbamoyl)-2-(2-oxo-4-(2,2,2-trifluoroethyl)imidazolidin-1-yl)-2,3-dihydro-1H-inden-5-yl)amino)-2-oxoethyl)-1-methyl-1H-pyrazole-5-carboxamide]	391
CNC(=O)C1(N2C[C@@H](C(C)C)NC2=O)Cc2ccc(NC(=O)[C@@H](Nc3nc4ccccc4o3)C3CCCCC3)cc2C1 (stereo partly drawn) [Example 77, 5-((S)-2-(benzo[d]oxazol-2-ylamino)-2-cyclohexylacetamido)-2-((R)-4-isopropyl-2-oxoimidazolidin-1-yl)-N-methyl-2,3-dihydro-1H-indene-2-carboxamide]	490
